Literature values as cited in patent publication US20160095850A1, “METHODS AND COMPOSITIONS FOR TREATMENT OF HIV INFECTION” (COOPER HUMAN SYSTEMS LLC, priority 2013, published 2016).

Experiments:
[1] = human, in vivo
[2] = system: HDAC activity in HeLa extracts; conditions: read-out: IC50 for inhibition of HDAC activity
A549 cells = conditions: read-out: EC50, dose-dependent increase in acetylated histone levels
HDAC8 = target: T1, HDAC8 (Homo sapiens, UniProt Q9BY41)
T1 sequence (Q9BY41 1-377): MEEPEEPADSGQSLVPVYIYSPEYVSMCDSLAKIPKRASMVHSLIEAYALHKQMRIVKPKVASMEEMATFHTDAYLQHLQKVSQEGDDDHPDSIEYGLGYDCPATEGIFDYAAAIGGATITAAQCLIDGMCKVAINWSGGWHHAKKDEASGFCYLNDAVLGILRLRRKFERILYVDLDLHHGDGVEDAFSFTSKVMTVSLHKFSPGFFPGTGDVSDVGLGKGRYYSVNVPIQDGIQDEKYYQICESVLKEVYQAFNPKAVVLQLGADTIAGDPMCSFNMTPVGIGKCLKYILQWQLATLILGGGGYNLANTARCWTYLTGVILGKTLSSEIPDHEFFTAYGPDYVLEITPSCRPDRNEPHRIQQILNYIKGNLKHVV

HDAC3 = HDAC3 (Homo sapiens, UniProt O15379)
[3] = system: HIV-RNA in resting CD4 T cells; conditions: single dose of 400 mg
[4] = system: HIV RNA expression in CD4 T cells

Sequence of HDAC3 (O15379 whole entry): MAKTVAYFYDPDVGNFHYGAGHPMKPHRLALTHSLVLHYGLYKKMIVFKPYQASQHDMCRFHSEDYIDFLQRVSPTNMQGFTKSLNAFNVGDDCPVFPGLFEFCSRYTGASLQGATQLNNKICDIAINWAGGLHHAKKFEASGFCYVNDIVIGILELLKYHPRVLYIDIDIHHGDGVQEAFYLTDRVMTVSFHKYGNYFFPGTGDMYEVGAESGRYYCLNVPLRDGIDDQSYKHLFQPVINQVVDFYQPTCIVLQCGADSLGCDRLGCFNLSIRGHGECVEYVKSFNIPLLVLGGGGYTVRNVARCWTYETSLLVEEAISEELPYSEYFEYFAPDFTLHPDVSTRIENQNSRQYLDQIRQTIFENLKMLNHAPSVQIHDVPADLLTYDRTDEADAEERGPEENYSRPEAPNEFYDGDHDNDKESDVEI
Sequence of HDAC3 (Q9Y618 395-489 partner limits assumed): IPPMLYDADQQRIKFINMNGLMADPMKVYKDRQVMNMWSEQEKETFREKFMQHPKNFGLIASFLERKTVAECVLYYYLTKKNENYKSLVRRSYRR

Compound: NCCCCN(Cc1nc2ccccc2[nH]1)[C@H]1CCCc2cccnc21 [AMD070]
- median estimated terminal half-life [1]: 7.6 to 12.6 h

Compound: Nc1ccccc1NC(=O)CCCCCCC(=O)Nc1ccccc1 [BML-210]
- IC50 [2]: 80 µM
- EC50 (A549 cells): 36 µM

Compound: Cc1cc(Cl)ccc1OCCCC(=O)NO [Droxinostat]
- IC50 (HDAC8): 1.46 µM
- IC50 (other HDAC members): > 20 µM
- IC50 (HDAC3): 16.9 µM

Compound: O=C(CCCCCCC(=O)NO)NO [SBHA, Suberohydroxamic acid]
- IC50 (HDAC3): 0.3 µM

Compound: O=C(CCCCCCC(=O)Nc1ccccc1)NO [Vorinostat, suberoylanilide hydroxamic acid]
- evaluated subjects with significantly increased expression of HIV-RNA in isolated resting CD4 T cells [3]: 8 of 8
- course of the induction of HIV RNA [4]: transient and diminished after 24 hours

Compound: IL-15: cytokine promoting activation and maintenance of NK and CD8 T effector memory cells
- expansion of CD8 T(EM) cells in the peripheral blood (CD8 T(EM) cells; 20 μg/kg/d by continuous intravenous infusion for 10 days): 100 fold
- expansion of CD8 T(EM) cells (CD8 T(EM) cells; 20-40 μg/kg/d by subcutaneous injection): 10 fold
